Results published in US20130273181A1, “METHODS AND COMPOSITIONS FOR DIAGNOSING AND TREATING MUSCLE MYOPATHY DISORDERS” (The Regents of the University of Colorado, a body Corporate, priority 2012, published 2013).
“Also recorded” adds a separate entry of the source. Read-outs that look alike come from different tables or passages of the source.

Tests used:
Type in all cases: cell-based, mouse
[1] = test system: Ryr1^m1Nisw/m1Nisw E18.5 diaphragm muscle; test: EMG recordings / contractility of explanted E18.5 diaphragm muscle; conditions: for Minutes to Contraction (Stand. Dev): EMG recordings, electrically stimulated; for Minutes to Contraction (Stand. Dev) / contractions / contractility (in words): PMA 50 nM, AICAR 500 μM; for contractions / contractility (in words): bath application, KCl 6 mM, BaCl2 100 μM, potassium gluconate 6 mM, BayK8644 100 nM
Experimental: (§1) In other methods, whether increasing the excitability in E18.5 Ryr1^m1Nisw/m1Nisw whole diaphragm muscle could force the DHPR-RyR1 complex to initiate contractility was examined. In one exemplary method, electromyography recordings (EMG) was performed to examine whether whole muscle in vitro was sensitive to potassium-dependent depolarization by adding potassium to the bath to depolarize the membrane. […] Potassium induced excitability can also be triggered by blocking inward rectifier potassium channels.
(§2) DHPR and RyR1 interact through orthograde and retrograde signaling, but the Ryr1^m1Nisw/m1Nisw mutation is not located within this interaction region. Orthograde signaling from DHPR opens the RyR1 channel in the SR, while retrograde signaling from RyR1 controls the gating of DHPR.
(§3) FIG. 2g represents an exemplary graph of contractility of E18.5 diaphragm muscle from Ryr1^+/+, Ryr1^m1Nisw/m1Nisw, or RyR1^tm1Alle/tm1Alle embryos. After equilibration, all samples were bathed first in 6 mM KCl, followed by wash out and then addition of 100 μm BaCl as indicated. […] FIG. 2h provides an exemplary graph of contractility of E18.5 diaphragm muscle from Ryr1^+/+, Ryr1^m1Nisw/m1Nisw and RyR1^tm1Alle/tm1Alle embryos in 6 mM potassium gluconate (n=4).
(§4) In myotubes, the application of ryanodine at levels that activate RyR increases ERK1/2 protein levels and c-Fos and c-Jun transcript levels. ERK1/2 phosphorylates the most abundant potassium transport protein, Na^+, K^+-ATPase, which, in turn, induces an increase in ion transport. Na^+, K^+-ATPase is essential for maintaining the equilibrium potential of Na^+ and K^+ at the membrane. In one exemplary method, western blot was performed to analyze certain protein levels in Ryr1^m1Nisw/m1Nisw and Ryr1^tm1Alle/tm1Alle embryonic muscle extracts with beta-tubulin served as a loading control. […] In another exemplary method, Phorbol-12-myristate-13-acetate (PMA 50 nM), an activator of ERK1/2 phosphorylation, was applied to the bath of in vitro Ryr1^m1Nisw/m1Nisw diaphragm preparation to increase the phosphorylation of Na^+, K^+-ATPase.
(§5) In certain exemplary methods, restoration of membrane potential and muscle contractions by pharmacological stimulation was tested. First, effect of stimulation of AMPK activity on restoring the resting membrane potential of the mutant diaphragm muscle was determined. An AMPK activator, e.g. 5-aminoimidazole-4-carboxamide-1-β-d-ribofuranoside (AICAR, 500 μM), was bath applied to explanted Ryr1^m1Nisw/m1Nisw E18.5 diaphragm muscles. […] Next, other pharmacological stimuli were examined. […] Glibenclamide (2 μM) and 5-hydrodecanoic acid (5HA, 200 μM) selectively bind to SUR1 and SUR2 to block ATP-sensitive K^+ channels.

[2] = test system: Ryr1^tm1Alle/tm1Alle diaphragm muscle; test: Contractility of explanted E18.5 diaphragm muscle, Ryr1 null; conditions: same bath concentrations
Experimental: as §1, §2, §3, §4, §5

[3] = test system: Ryr1^m1Nisw/m1Nisw diaphragm muscle; test: Sharp electrode recordings of resting membrane potential of diaphragm muscle; conditions: for resting membrane potential (in words): Glibenclamide 2 μM, AICAR 500 μM; for resting membrane potential (in words) / resting membrane potential after treatment: PMA 50 nM; for shift in membrane potential / resting membrane potential after treatment: sharp electrode; for shift in membrane potential: PMA 50 nM vs ethanol, AICAR 500 μM n=18; for resting membrane potential after treatment: BaCl2 n=27
Experimental: Therefore, in some exemplary methods, whether voltage dependent orthograde signaling through the DHPR-RyR1 complex could be initiated through changes in membrane potential was first assessed.
as §1, §4, §5

soleus muscle = test: Steady-state membrane potential (VREST) of two month old soleus muscle at varied extracellular potassium; conditions: for VREST after drug addition: control 0.6% potassium diet, independent of extracellular potassium
[4] = RyR1^m1Nisw/+ soleus muscle, bumetanide 75 μM, BaCl2 50 μM
[5] = RyR1^m1Nisw/+ soleus muscle, bumetanide 75 μM, BaCl2 50 μM, Glibenclamide 2 μM, or chronic 5.2% potassium diet

CCCCCC(O)CCCC(=O)O (stereo not shown) [5HA, 5-hydrodecanoic acid]
Minutes to Contraction (Stand. Dev) ([1]; Glibenclamide 2 μM, 5HA 200 μM): 106 (52) Minutes | bath application time after which contractions were elicited ([1]; Glibenclamide 2 μM, 5HA 200 μM, n=6 for each): 2 h | explants showing contractions ([1]; after 1 hour bath application, n=6 for each): 50% | contractions / contractility (in words) ([1]; Glibenclamide 2 μM, 5HA 200 μM): rescued

NC(=O)c1ncn([C@@H]2O[C@H](CO)[C@@H](O)[C@H]2O)c1N [AICAR, 5-aminoimidazole-4-carboxamide-1-β-d-ribofuranoside]
Minutes to Contraction (Stand. Dev) ([1]; Glibenclamide 2 μM, 5HA 200 μM): None | contractions / contractility (in words) ([1]; Glibenclamide 2 μM, 5HA 200 μM): unable to initiate contractions | contractions / contractility (in words) [2]: unable to initiate contractions | resting membrane potential (in words) [3]: restore the mutant resting membrane potential to normal levels | shift in membrane potential [3]: −10.4+/−3.9 mV

[Ba+2].[Cl-].[Cl-] [BaCl2]
contractions / contractility (in words) ([1]; Glibenclamide 2 μM, 5HA 200 μM): induced stimulated bursts of activity and contractions | contractions / contractility (in words) ([1]; Glibenclamide 2 μM, 5HA 200 μM, listed as BaCl): rescued | contractions / contractility (in words) ([2]; listed as BaCl): failed to contract | resting membrane potential after treatment [3]: −68.5 mV | VREST phase (in words) (soleus muscle): driven to phase 2 | VREST after drug addition (soleus muscle; [4]): −91.7+/−3.8 mV | VREST phase (in words) (soleus muscle; [5]): driven to phase 2

COC(=O)C1=C(C)NC(C)=C([N+](=O)[O-])C1c1ccccc1C(F)(F)F (stereo not shown) [BayK8644]
contractions / contractility (in words) ([1]; Glibenclamide 2 μM, 5HA 200 μM): induced contractions within minutes | contractions / contractility (in words) [2]: no contractions occurred

[Cl-].[K+] [KCl]
contractions / contractility (in words) ([1]; Glibenclamide 2 μM, 5HA 200 μM): induced bursts of electrical activity and contractions; also recorded: rescued | contractions / contractility (in words) [2]: failed to contract

CCCCCCCCCCCCCC(=O)O[C@@H]1[C@@H](C)[C@@]2(O)[C@@H](C=C(CO)C[C@]3(O)C(=O)C(C)=C[C@@H]23)[C@@H]2C(C)(C)[C@]12OC(C)=O [PMA, Phorbol-12-myristate-13-acetate]
time to contraction after addition [1]: ≤ 5 min | Minutes to Contraction (Stand. Dev) ([1]; Glibenclamide 2 μM, 5HA 200 μM): 4 (2) Minutes | contractions / contractility (in words) ([1]; Glibenclamide 2 μM, 5HA 200 μM): strongly elicited contractions | contractions / contractility (in words) [2]: no effect | resting membrane potential (in words) [3]: normalized the membrane potential | resting membrane potential after treatment [3]: −67.7 mV | shift in membrane potential [3]: −18.3+/−5.3 mV

CCCCNc1cc(C(=O)O)cc(S(N)(=O)=O)c1Oc1ccccc1 [bumetanide]
VREST after drug addition (soleus muscle; [4]): −92.3+/−4.8 mV | VREST phase (in words) (soleus muscle; [5]): driven to phase 1 | VREST phase (in words) (soleus muscle; wild type muscle, low extracellular potassium / Tetanus, bumetanide 75 μM, BaCl2 50 μM, Glibenclamide 2 μM): driven to phase 1

O=C([O-])[C@H](O)[C@@H](O)[C@H](O)[C@H](O)CO.[K+] [potassium gluconate]
contractions / contractility (in words) ([1]; Glibenclamide 2 μM, 5HA 200 μM): Contractions also transpired
